Laboratory results published in US6492410B1, “Combinations of protein farnesyltransferase and HMG CoA reductase inhibitors and their use to treat cancer” (Warner-Lambert Company, priority 1998, dated 2002).
Each block holds one molecule with its values, some of them ahead of it.

Experiments:
[1] = test system: EJ-1 human bladder carcinoma; details: 100 mg/kg; EJ-1 xenograft in nude mice; cited from earlier work
[2] = test system: HT1080 human fibrosarcoma; details: 100 mg/kg; HT1080 xenograft in nude mice; cited from earlier work
[3] = test system: human colon carcinoma xenografts; details: 100 mg/kg; human colon carcinoma xenograft in nude mice; cited from earlier work
[4] = test system: human lung carcinoma with K-ras mutation and p53 deletion; details: nude mice; cited from earlier work
[5] = test system: mammary and salivary carcinomas; details: daily administration; ras transgenic mice; cited from earlier work
Colon26 = assay: cells; details: Mus musculus, Colon 26, 72 h, read-out: IC50 (concentration at which growth (cell#) is reduced by 50%)
Method: (§1) A proliferation assay was performed to ascertain the toxicity of a combination of a famesyl protein transferase and lovastatin at various concentrations to a number of cancerous cell lines. The assay was also performed to ascertain the toxicity of the farnesyl protein transferase alone as a comparison against the combination.
(§2) Cell lines (Panc-1, Colon26, HT-29 Colon, H460 Lung, H-ras NIH 3T3 fibroblast, P388/ADR leukemia, and P388/S leukemia) were set up at various starting concentrations in 24- or 12-well dishes. Suspension cells were treated immediately; attached monolayer cells were allowed to attach for 24 hours prior to treatment. The cells were treated in one series of tests with lovastatin and solvent (DMSO); in another series of tests with a combination of lovastatin, solvent (DMSO) and the farnesyltransferase inhibitor, (S)-[1-{(4-benzyloxy-benzyl)-[(2-methyl-2-phenyl-propyl carbamoyl)-methyl]-carbamoyl}-2-(3H1-imidazol-4-yl)-ethyl]-carbamic acid benzyl ester (Compound A); and in a third series of cells were treated with only the farnesyltransferase inhibitor. After 72 hours of treatment, the cells (growing in 1 mL of medium) are trypsinized with warm (37 degrees celsius) trypsin-EDTA (0.5 mL for 1-2 minutes), agitated, rescued with 0.5 mL of warm (37) medium, then diluted in […] Isoton (isotonic saline) for a final volume of 10 mL, 0.5 mL are then counted on a Coulter cell counter.
(§3) The data for lovastatin treatment alone is relative to the DMSO-treated controls; the data for combination treatment is relative to the PFT inhibitor treatment alone samples.

H-ras NIH 3T3 fibroblast = assay: cells; details: Mus musculus, NIH3T3, 72 h, read-out: IC50 (concentration at which growth (cell#) is reduced by 50%)
Method: as §1, §2, §3

H460 Lung = assay: cells; details: Homo sapiens, NCI-H460, 72 h, read-out: IC50 (concentration at which growth (cell#) is reduced by 50%)
Method: as §1, §2, §3

HT-29 Colon = assay: cells; details: Homo sapiens, HT-29, 72 h, read-out: IC50 (concentration at which growth (cell#) is reduced by 50%)
Method: as §1, §2, §3

P388/ADR leukemia = assay: cells; details: Mus musculus, 72 h, read-out: IC50 (concentration at which growth (cell#) is reduced by 50%)
Method: as §1, §2, §3

P388/S leukemia = assay: cells; details: Mus musculus, 72 h, read-out: IC50 (concentration at which growth (cell#) is reduced by 50%)
Method: as §1, §2, §3

Panc-1 = assay: cells; details: Homo sapiens, PANC-1, 72 h, read-out: IC50 (concentration at which growth (cell#) is reduced by 50%)
Method: as §1, §2, §3

[6] = test system: hepatocellular, pancreatic, and central nervous system tumors; details: in vitro and in animal models; cited from earlier work

Compound: COC(=O)[C@H](CCSC)NC(=O)[C@H](/C=C\[C@@H](/C=C/[C@@H](N)CS)C(C)C)Cc1ccccc1 [B 1086]
tumor growth [1]: inhibit tumor growth
tumor growth [2]: inhibit tumor growth
tumor growth [3]: inhibit tumor growth

Compound: CSCC[C@H](NC(=O)c1ccc(NC[C@@H](N)CS)cc1-c1ccccc1)C(=O)O [FT1276]
tumor growth [4]: selectively block tumor growth

Compound: CC[C@H](C)[C@@H](CO[C@@H](Cc1ccccc1)C(=O)N[C@@H](CCS(C)(=O)=O)C(=O)OC(C)C)NC[C@@H](N)CS [L-744,832]
tumor regression [5]: caused tumor regression

IC50 (H460 Lung): 5.5 µM
IC50 (HT-29 Colon): 11.4 µM
IC50 (P388/ADR leukemia): 10.7 µM
IC50 (P388/S leukemia): 4 µM
IC50 (Panc-1): 18.8 µM
Compound: CC[C@H](C)C(=O)O[C@H]1C[C@@H](C)C=C2C=C[C@H](C)[C@H](CC[C@@H]3C[C@@H](O)CC(=O)O3)[C@H]21 [Lovastatin, lovastatin]
IC50 (Colon26): 1.2 µM
IC50 (H-ras NIH 3T3 fibroblast): 17.4 µM
tumor growth [6]: selectively inhibited tumor growth
